Key:
Assay in all cases: Gαq-mediated intracellular calcium mobilization
[1] = target: T1, human 5-HT2C (INI) receptor (Homo sapiens, UniProt P28335); conditions: for agonism at the 5-HT2C receptor (in words): calcium flux, HEK-293; for Emax: HEK293, read-out: 5-HT2C Emax, percentage of maximal activation by 5-HT, or activation at 10 μM for NA
T1 sequence (P28335 33-458): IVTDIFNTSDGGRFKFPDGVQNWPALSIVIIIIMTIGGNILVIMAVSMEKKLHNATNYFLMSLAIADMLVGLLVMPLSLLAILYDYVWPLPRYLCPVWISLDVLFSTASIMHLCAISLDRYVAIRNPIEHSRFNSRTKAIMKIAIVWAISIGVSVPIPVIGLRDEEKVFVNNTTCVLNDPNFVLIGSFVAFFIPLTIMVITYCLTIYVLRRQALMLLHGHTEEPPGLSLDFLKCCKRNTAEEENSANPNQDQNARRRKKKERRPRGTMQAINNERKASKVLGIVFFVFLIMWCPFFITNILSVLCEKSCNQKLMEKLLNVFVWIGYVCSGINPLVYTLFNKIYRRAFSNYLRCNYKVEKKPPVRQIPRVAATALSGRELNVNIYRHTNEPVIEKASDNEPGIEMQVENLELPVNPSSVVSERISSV

human 5-HT2A receptor = human 5-HT2A receptor (Homo sapiens, UniProt P28223); conditions: calcium flux, HEK-293
human 5-HT2B receptor = human 5-HT2B receptor (Homo sapiens, UniProt P41595); conditions: calcium flux, HEK-293
human 5-HT2B receptor, sequence (P41595 whole entry): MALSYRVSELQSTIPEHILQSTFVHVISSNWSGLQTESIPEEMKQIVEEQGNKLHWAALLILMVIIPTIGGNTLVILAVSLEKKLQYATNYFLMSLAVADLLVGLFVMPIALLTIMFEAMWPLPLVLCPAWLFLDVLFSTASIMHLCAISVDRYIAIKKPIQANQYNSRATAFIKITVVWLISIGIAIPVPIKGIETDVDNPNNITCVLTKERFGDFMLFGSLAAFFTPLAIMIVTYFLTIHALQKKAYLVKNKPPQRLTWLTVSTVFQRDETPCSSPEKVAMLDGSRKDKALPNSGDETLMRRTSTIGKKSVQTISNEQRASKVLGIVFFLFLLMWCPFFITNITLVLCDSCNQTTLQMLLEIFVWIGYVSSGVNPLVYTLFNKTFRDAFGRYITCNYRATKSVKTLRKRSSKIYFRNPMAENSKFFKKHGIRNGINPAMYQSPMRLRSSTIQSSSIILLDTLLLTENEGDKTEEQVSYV

human 5-HT2A receptor, sequence (P28223 whole entry): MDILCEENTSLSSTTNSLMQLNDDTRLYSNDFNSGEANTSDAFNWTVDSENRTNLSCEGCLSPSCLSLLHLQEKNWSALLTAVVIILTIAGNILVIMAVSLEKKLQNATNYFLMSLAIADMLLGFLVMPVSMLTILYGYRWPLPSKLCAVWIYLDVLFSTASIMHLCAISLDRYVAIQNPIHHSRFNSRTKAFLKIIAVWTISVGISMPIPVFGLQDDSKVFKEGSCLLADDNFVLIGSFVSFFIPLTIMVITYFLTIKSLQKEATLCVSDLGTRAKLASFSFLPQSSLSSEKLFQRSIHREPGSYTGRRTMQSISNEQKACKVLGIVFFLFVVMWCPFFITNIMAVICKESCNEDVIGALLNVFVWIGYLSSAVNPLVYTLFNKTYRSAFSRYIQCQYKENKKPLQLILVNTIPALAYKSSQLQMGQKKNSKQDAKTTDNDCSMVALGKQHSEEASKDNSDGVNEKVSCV

Compound	agonism at the 5-HT2C receptor (in words) [1]	agonism at the 5-HT2A receptor (in words) (human 5-HT2A receptor)	agonism at the 5-HT2B receptor (in words) (human 5-HT2B receptor)	other results
CCCCOc1ccc(C)cc1[C@H]1C[C@@H]1CN.Cl [Compound 10b]	much less potent	–	–	–
COc1ccc(-c2ccccc2C)cc1[C@H]1C[C@@H]1CN [Compound 9b]	–	–	–	EC50 [1]: 3.8 µM; Emax [1]: 64%
CCCCc1ccc(-c2ccc(OC)c([C@H]3C[C@@H]3CN)c2)cc1.Cl [Compound 9h]	failure	failure	failure	–
Cl.NC[C@H]1C[C@@H]1c1ccccc1OCC1CC1 (racemic) [Compound 11e, trans-[2-(2-cyclopropylmethoxyphenyl)cyclopropyl]methylamine hydrochloride]	–	–	inactive	–
Cl.NC[C@H]1C[C@@H]1c1ccccc1OCC1CCCCC1 [Compound 11g]	abolished agonist activity	abolished agonist activity	abolished agonist activity	–
Cl.NC[C@H]1C[C@@H]1c1ccccc1OCC1CC1 (single isomer, unassigned) [(+)-11e, (+)-trans-[2-(2-cyclopropylmethoxyphenyl)cyclopropyl]methylamine hydrochloride]	–	activate neither	activate neither	agonism at the 5-HT2B receptor (in words) (human 5-HT2B receptor; listed as (+)-trans-[2-(2-cyclopropylmethoxyphenyl)cyclopropyl]methylamine hydrochloride): no detectable agonism
CC(C)COc1ccccc1[C@H]1C[C@@H]1CN.Cl [Compound 11c]	–	–	inactive	–
CCCCCOc1ccccc1[C@H]1C[C@@H]1CN.Cl [Compound 11d]	abolished agonist activity	abolished agonist activity	abolished agonist activity	–
COc1ccc(-c2ccccc2)cc1[C@H]1C[C@@H]1CN [Compound 9a]	–	–	–	EC50 [1]: 3.47 µM; Emax [1]: 67%
Cc1ccc(OCC(C)C)c([C@H]2C[C@@H]2CN)c1.Cl [Compound 10a]	much less potent	–	–	–
